# In ChEMBL document CHEMBL3603752, “Discovery of N-(4-aryl-5-aryloxy-thiazol-2-yl)-amides as potent RORγt inverse agonists” (Bioorg Med Chem, 2015):
# Experiments:
# Liver = assay: Intrinsic clearance in mouse liver microsomes at 0.5 microM by LC/MS/MS analysis; format: ADME
# [1] = target: T1, Nuclear receptor ROR-gamma (Mus musculus, UniProt P51450); assay: Inverse agonist activity at RORgammat in mouse Th17 cells assessed as inhibition of IL-17 production after 3 days by ELISA; format: cell-based
# T1 sequence (P51450 whole entry): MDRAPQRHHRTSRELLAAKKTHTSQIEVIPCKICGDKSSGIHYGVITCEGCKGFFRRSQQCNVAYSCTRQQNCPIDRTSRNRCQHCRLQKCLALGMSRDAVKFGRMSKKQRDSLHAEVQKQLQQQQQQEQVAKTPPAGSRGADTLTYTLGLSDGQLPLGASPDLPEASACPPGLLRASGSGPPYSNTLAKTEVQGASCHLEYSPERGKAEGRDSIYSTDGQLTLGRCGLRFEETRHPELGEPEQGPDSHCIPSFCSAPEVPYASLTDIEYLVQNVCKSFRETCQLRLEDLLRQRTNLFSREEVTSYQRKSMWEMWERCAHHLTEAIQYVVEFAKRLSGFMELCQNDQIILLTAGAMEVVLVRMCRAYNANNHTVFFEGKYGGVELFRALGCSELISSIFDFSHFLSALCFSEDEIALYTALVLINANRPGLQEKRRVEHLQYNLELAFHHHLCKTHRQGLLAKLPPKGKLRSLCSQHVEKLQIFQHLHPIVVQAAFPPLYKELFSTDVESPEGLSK
# [2] = target: T2, Nuclear receptor ROR-gamma (Homo sapiens, UniProt P51449); assay: Agonist activity at APC-labeled RORgammat-LBD (unknown origin) assessed as induction of europium-labeled SRC1 recruitment after 1 hr by dual FRET analysis
# T2 sequence (P51449 whole entry): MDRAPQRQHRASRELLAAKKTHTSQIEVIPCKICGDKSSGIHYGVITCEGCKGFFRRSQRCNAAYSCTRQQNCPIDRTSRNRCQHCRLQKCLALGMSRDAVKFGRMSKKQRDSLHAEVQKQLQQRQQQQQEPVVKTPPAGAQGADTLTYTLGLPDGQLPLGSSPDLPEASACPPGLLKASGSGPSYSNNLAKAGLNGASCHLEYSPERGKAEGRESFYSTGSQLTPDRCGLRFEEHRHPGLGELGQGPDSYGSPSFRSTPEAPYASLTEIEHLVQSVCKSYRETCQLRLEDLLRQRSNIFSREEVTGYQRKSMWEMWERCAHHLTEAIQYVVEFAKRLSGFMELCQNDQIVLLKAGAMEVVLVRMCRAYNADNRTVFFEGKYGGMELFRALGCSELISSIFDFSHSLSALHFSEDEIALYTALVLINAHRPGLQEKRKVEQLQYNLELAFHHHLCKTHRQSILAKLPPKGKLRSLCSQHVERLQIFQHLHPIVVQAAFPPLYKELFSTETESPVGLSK
# [3] = target: T2, Nuclear receptor ROR-gamma; assay: Inverse agonist activity at APC-labeled RORgammat-LBD (unknown origin) assessed as inhibition of N-(2-chloro-6-fluorobenzyl)-N-((2'-methoxy-[1,1'-biphenyl]-4-yl)-methyl)benzenesulfonamide-induced europium-labeled SRC1 recruitment after 1 hr by FRET analysis
CLH (Liver) [mL/min/g],IC50 [1] [nM],EC50 [2] [µM],IC50 [3] [nM],Compound
2.37,251,,,CCS(=O)(=O)c1ccc(CC(=O)Nc2nc(-c3ccccc3)c(Oc3ccccc3OC)s2)cc1
< 0.36,1580,,,CCS(=O)(=O)c1ccc(CC(=O)Nc2nc(-c3ccccc3)c(Oc3ccc(Cl)cc3)s2)cc1
< 0.36,631,,,CCS(=O)(=O)c1ccc(CC(=O)Nc2nc(-c3ccccc3)c(Oc3ccc(C(F)(F)F)cc3)s2)cc1
0.39,> 10000,,,CCS(=O)(=O)c1ccc(CC(=O)Nc2nc(-c3ccccc3)c(Oc3ccc(OC)cc3)s2)cc1
< 0.36,3980,,,CCS(=O)(=O)c1ccc(CC(=O)Nc2nc(-c3ccc(Cl)cc3)c(Oc3ccccc3)s2)cc1

# Second part, the compound before the results:
Compound,CLH (Liver) [mL/min/g],IC50 [1] [nM],EC50 [2] [µM],IC50 [3] [nM]
CCS(=O)(=O)c1ccc(CC(=O)Nc2nc(-c3cccc(C#N)c3)c(Oc3ccc(Cl)cc3C(F)(F)F)s2)cc1,< 0.36,158,,
CCS(=O)(=O)c1ccc(CC(=O)Nc2nc(-c3cc(Cl)ccc3Cl)c(-c3ccccc3)s2)cc1,,,3.16,158
CCS(=O)(=O)c1ccc(CC(=O)Nc2nc(-c3ccccc3)c(Oc3ccccc3Cl)s2)cc1,0.46,1580,,
CCS(=O)(=O)c1ccc(CC(=O)Nc2nc(-c3ccccc3)c(Oc3ccccc3C(F)(F)F)s2)cc1,< 0.36,1000,,
CCS(=O)(=O)c1ccc(CC(=O)Nc2nc(-c3cccc(Cl)c3)c(Oc3ccccc3)s2)cc1,,1580,,
CCS(=O)(=O)c1ccc(CC(=O)Nc2nc(-c3cccc(Cl)c3)c(Oc3ccccc3C(F)(F)F)s2)cc1,< 0.36,2000,,
CCS(=O)(=O)c1ccc(CC(=O)Nc2nc(-c3cccc(C#N)c3)c(Oc3ccccc3C(F)(F)F)s2)cc1,< 0.36,251,,
CCS(=O)(=O)c1ccc(CC(=O)Nc2nc(-c3cccc(C#N)c3)c(Oc3ccc(C(F)(F)F)cc3Cl)s2)cc1,< 0.36,398,,
